The structures appear in SMILES notation.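 Results reflect a 48-hour exposure of cells in 96-well plates to compound at five concentrations. TGI is the concentration that stops growth completely.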

One may read the TGI as the concentration at which net growth stops. A higher TGI goes with lower sensitivity of the cells.

The first assay has as its system OVCAR-4 ovarian. Nature of the assay: DTP human tumour cell line panel, 48 h.
`NCCCCNCCCN1CC1` yielded a TGI of 0.733 µM.

In the case of `O=C1CSC2(CC(/C=C/c3ccccc3O)=NN2c2cccc(S(=O)(=O)O)c2)N1c1nc2ccccc2s1` (configuration not stated), the TGI is 88.5 µM.

Turning to `COc1cc(OCc2ccc3nc(-c4ccccc4)c(N)nc3c2)cc(OC)c1OC`, the concentration for total growth inhibition (TGI) came out at 34.6 µM.

For the molecule `CCc1nnc(CC)n1NCCCC(=O)O`, the total growth inhibition concentration (TGI) was more than 100 µM.

In the case of `O=C1NC(N2CCOCC2)=N/C1=C\c1cccs1`, the TGI is more than 100 µM.

In turn, `O=c1[nH]c(=O)n(C2OC(CO)C(O)C(F)C2O)cc1F` (configuration not stated) showed a TGI of more than 100 µM.

The test system of the next assay is 786-0 renal. The assay can be described thus: DTP human tumour cell line panel, 48 h.
Molecule `CC(C)OP(=O)(OC(C)C)C(C(C)C)N(C)/C(N)=N\C1=NC(C(F)(F)F)(C(F)(F)F)N=C(C(C(F)(F)F)C(F)(F)F)O1` (configuration not stated) gave a TGI of 12.4 µM.

Molecule `O=C(c1ccc(Cl)cc1Cl)N(C(=O)N1CCC(c2ccccc2)CC1)c1ccccc1` gave a TGI of more than 100 µM.

Take `NCCCCNCCCN1CC1`: the TGI was found to be 5.75 µM.

The molecule `O=C1CSC2(CC(/C=C/c3ccccc3O)=NN2c2cccc(S(=O)(=O)O)c2)N1c1nc2ccccc2s1` (configuration not stated) returned a TGI of 98.7 µM.

For the molecule `O=c1n(/N=C/c2ccccc2)c(=O)n2n1C1C=CC2CC1`, the TGI is more than 100 µM.

Molecule `COc1cc(Br)c(OC)c2c(OC)cc(C)cc12` returned a TGI of more than 100 µM.

Turning to `CCOC(=O)/C(N=Nc1ccc(-n2c(C)nc3ccccc3c2=O)cc1)=C(/C)O`, the TGI is more than 100 µM.

`COc1cc(OCc2ccc3nc(-c4ccccc4)c(N)nc3c2)cc(OC)c1OC` showed a concentration for total growth inhibition (TGI) of 81.2 µM.

With `CCc1nnc(CC)n1NCCCC(=O)O`, the TGI was more than 100 µM.

As for `CCOC(=O)C(c1c[nH]c2ccccc12)(c1c[nH]c2ccccc12)c1c[nH]c2ccccc12`, the TGI is more than 100 µM.

`O=C1NC(N2CCOCC2)=N/C1=C\c1cccs1`: the total growth inhibition concentration (TGI) was more than 100 µM.

Molecule `O=c1[nH]c(=O)n(C2OC(CO)C(O)C(F)C2O)cc1F` (configuration not stated) registered a TGI of more than 100 µM.

A further assay deals with A498 renal. Nature of the assay: DTP human tumour cell line panel, 48 h.
Molecule `CC(C)OP(=O)(OC(C)C)C(C(C)C)N(C)/C(N)=N\C1=NC(C(F)(F)F)(C(F)(F)F)N=C(C(C(F)(F)F)C(F)(F)F)O1` (configuration not stated) yielded a TGI of 23.5 µM.

In turn, `O=C(c1ccc(Cl)cc1Cl)N(C(=O)N1CCC(c2ccccc2)CC1)c1ccccc1` yielded a TGI of more than 100 µM.

In the case of `NCCCCNCCCN1CC1`, the TGI is 1.84 µM.

Consider `O=C1CSC2(CC(/C=C/c3ccccc3O)=NN2c2cccc(S(=O)(=O)O)c2)N1c1nc2ccccc2s1` (configuration not stated), for which the TGI is more than 100 µM.

Molecule `O=c1n(/N=C/c2ccccc2)c(=O)n2n1C1C=CC2CC1` displayed a TGI of more than 100 µM.

As for `COc1cc(Br)c(OC)c2c(OC)cc(C)cc12`, the TGI is more than 100 µM.

`CCOC(=O)/C(N=Nc1ccc(-n2c(C)nc3ccccc3c2=O)cc1)=C(/C)O` registered a TGI of more than 100 µM.

Turning to `COc1cc(OCc2ccc3nc(-c4ccccc4)c(N)nc3c2)cc(OC)c1OC`, the TGI was found to be 73.8 µM.

`CCOC(=O)C(c1c[nH]c2ccccc12)(c1c[nH]c2ccccc12)c1c[nH]c2ccccc12` returned a TGI of more than 100 µM.

Take `O=c1[nH]c(=O)n(C2OC(CO)C(O)C(F)C2O)cc1F` (configuration not stated): the TGI was more than 100 µM.

The next assay relates to SR leukemia. The assay can be described thus: DTP human tumour cell line panel, 48 h.
With `CC(C)OP(=O)(OC(C)C)C(C(C)C)N(C)/C(N)=N\C1=NC(C(F)(F)F)(C(F)(F)F)N=C(C(C(F)(F)F)C(F)(F)F)O1` (configuration not stated), the TGI stood at 14.2 µM.

With `O=C(c1ccc(Cl)cc1Cl)N(C(=O)N1CCC(c2ccccc2)CC1)c1ccccc1`, the TGI was more than 100 µM.

`NCCCCNCCCN1CC1` gave a TGI of 52.9 µM.

In turn, `O=C1CSC2(CC(/C=C/c3ccccc3O)=NN2c2cccc(S(=O)(=O)O)c2)N1c1nc2ccccc2s1` (configuration not stated) came in with a TGI of 49.5 µM.

`O=c1n(/N=C/c2ccccc2)c(=O)n2n1C1C=CC2CC1` showed a TGI of more than 100 µM.

On to `COc1cc(Br)c(OC)c2c(OC)cc(C)cc12`, for which the TGI was 37.8 µM.

In turn, `CCOC(=O)/C(N=Nc1ccc(-n2c(C)nc3ccccc3c2=O)cc1)=C(/C)O` displayed a TGI of more than 100 µM.

On to `COc1cc(OCc2ccc3nc(-c4ccccc4)c(N)nc3c2)cc(OC)c1OC`, for which the TGI was determined as 43.8 µM.

Molecule `CCc1nnc(CC)n1NCCCC(=O)O` showed a concentration for total growth inhibition (TGI) of more than 100 µM.

As to `CCOC(=O)C(c1c[nH]c2ccccc12)(c1c[nH]c2ccccc12)c1c[nH]c2ccccc12`, the TGI was 80 µM.

Regarding `O=C1NC(N2CCOCC2)=N/C1=C\c1cccs1`, the TGI is more than 100 µM.

With `O=c1[nH]c(=O)n(C2OC(CO)C(O)C(F)C2O)cc1F` (configuration not stated), the concentration for total growth inhibition (TGI) came to 76.4 µM.

The test system of another assay is SK-OV-3 ovarian. The assay can be described thus: DTP human tumour cell line panel, 48 h.
Molecule `CC(C)OP(=O)(OC(C)C)C(C(C)C)N(C)/C(N)=N\C1=NC(C(F)(F)F)(C(F)(F)F)N=C(C(C(F)(F)F)C(F)(F)F)O1` (configuration not stated) yielded a TGI of 19.8 µM.

The molecule `O=C(c1ccc(Cl)cc1Cl)N(C(=O)N1CCC(c2ccccc2)CC1)c1ccccc1` showed a TGI of more than 100 µM.

As to `O=c1n(/N=C/c2ccccc2)c(=O)n2n1C1C=CC2CC1`, the TGI was more than 100 µM.

For `COc1cc(Br)c(OC)c2c(OC)cc(C)cc12`, the TGI was more than 100 µM.

In the case of `CCOC(=O)/C(N=Nc1ccc(-n2c(C)nc3ccccc3c2=O)cc1)=C(/C)O`, the concentration for total growth inhibition (TGI) was more than 100 µM.

Molecule `CCc1nnc(CC)n1NCCCC(=O)O` displayed a TGI of more than 100 µM.

Turning to `CCOC(=O)C(c1c[nH]c2ccccc12)(c1c[nH]c2ccccc12)c1c[nH]c2ccccc12`, the TGI is more than 100 µM.

Regarding `O=C1NC(N2CCOCC2)=N/C1=C\c1cccs1`, the TGI is more than 100 µM.

The molecule `O=c1[nH]c(=O)n(C2OC(CO)C(O)C(F)C2O)cc1F` (configuration not stated) had a TGI of more than 100 µM.

Another assay relates to UACC-257 melanoma. The assay can be described thus: DTP human tumour cell line panel, 48 h.
The molecule `CC(C)OP(=O)(OC(C)C)C(C(C)C)N(C)/C(N)=N\C1=NC(C(F)(F)F)(C(F)(F)F)N=C(C(C(F)(F)F)C(F)(F)F)O1` (configuration not stated) showed a TGI of 10.3 µM.

`O=C(c1ccc(Cl)cc1Cl)N(C(=O)N1CCC(c2ccccc2)CC1)c1ccccc1` returned a TGI of more than 100 µM.

The molecule `NCCCCNCCCN1CC1` yielded a TGI of more than 100 µM.

These data come from PubChem BioAssay (NCI).
